The supplement of paper PMC11451515

System: SEM cells
Test: cell viability relative to DMSO control; higher = less cytotoxic
Conditions: 48 h
In short: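 Before seeding, each leukemia line was adapted for at least four passages in each medium. NOMO1 or SEM cells (500 cells/well) and P12-Ichikawa cells (1000 cells/well) went into 1536-well plates at 5 μl, then received library compounds in DMSO by pin dosing across 11 threefold concentrations, 47 μM to 0.79 nM. Readout was CellTiter-Glo One luminescence after 48 h at 37°C, and viability is given as a per-plate percentage of DMSO wells, with cell-free wells as background.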

[1] = HPLM + 10% dialyzed FBS, 0.000781 µM
[2] = HPLM + 10% dialyzed FBS, 0.00234 µM
[3] = HPLM + 10% dialyzed FBS, 0.00702 µM
[4] = HPLM + 10% dialyzed FBS, 0.0211 µM
[5] = HPLM + 10% dialyzed FBS, 0.0632 µM
[6] = HPLM + 10% dialyzed FBS, 0.19 µM
[7] = HPLM + 10% dialyzed FBS, 0.569 µM
[8] = HPLM + 10% dialyzed FBS, 1.71 µM
[9] = HPLM + 10% dialyzed FBS, 5.12 µM
[10] = HPLM + 10% dialyzed FBS, 15.4 µM
[11] = HPLM + 10% dialyzed FBS, 46.1 µM
[12] = RPMI 5 mM glucose + 10% FBS, 0.000781 µM
[13] = RPMI 5 mM glucose + 10% FBS, 0.00234 µM
[14] = RPMI 5 mM glucose + 10% FBS, 0.00702 µM
[15] = RPMI 5 mM glucose + 10% FBS, 0.0211 µM
[16] = RPMI 5 mM glucose + 10% FBS, 0.0632 µM
[17] = RPMI 5 mM glucose + 10% FBS, 0.19 µM
[18] = RPMI 5 mM glucose + 10% FBS, 0.569 µM
[19] = RPMI 5 mM glucose + 10% FBS, 1.71 µM
[20] = RPMI 5 mM glucose + 10% FBS, 5.12 µM
[21] = RPMI 5 mM glucose + 10% FBS, 15.4 µM
[22] = RPMI 5 mM glucose + 10% FBS, 46.1 µM
[23] = RPMI 5 mM glucose + 10% dialyzed FBS, 0.000781 µM
[24] = RPMI 5 mM glucose + 10% dialyzed FBS, 0.00234 µM
[25] = RPMI 5 mM glucose + 10% dialyzed FBS, 0.00702 µM
[26] = RPMI 5 mM glucose + 10% dialyzed FBS, 0.0211 µM
[27] = RPMI 5 mM glucose + 10% dialyzed FBS, 0.0632 µM
[28] = RPMI 5 mM glucose + 10% dialyzed FBS, 0.19 µM
[29] = RPMI 5 mM glucose + 10% dialyzed FBS, 0.569 µM
[30] = RPMI 5 mM glucose + 10% dialyzed FBS, 1.71 µM
[31] = RPMI 5 mM glucose + 10% dialyzed FBS, 5.12 µM
[32] = RPMI 5 mM glucose + 10% dialyzed FBS, 15.4 µM
[33] = RPMI 5 mM glucose + 10% dialyzed FBS, 46.1 µM

SMILES | cell viability [1] | cell viability [2] | cell viability [3] | cell viability [4] | cell viability [5] | cell viability [6] | cell viability [7] | cell viability [8] | cell viability [9] | cell viability [10] | cell viability [11] | cell viability [12] | cell viability [13] | cell viability [14] | cell viability [15] | cell viability [16] | cell viability [17] | cell viability [18] | cell viability [19] | cell viability [20] | cell viability [21] | cell viability [22] | cell viability [23] | cell viability [24] | cell viability [25] | cell viability [26] | cell viability [27] | cell viability [28] | cell viability [29] | cell viability [30] | cell viability [31] | cell viability [32] | cell viability [33]
CSCC[C@@H](NC(=O)[C@@H](Cc1ccccc1)NC(=O)CNC(=O)CNC(=O)[C@@H](N)Cc1ccc(O)cc1)C(=O)O | 73.5% | 44.7% | 93% | 22% | 106% | 103% | 94.9% | 102% | 98.9% | 91.6% | 99.6% | 72.6% | 25.7% | 80.9% | 15.5% | 103% | 104% | 90.5% | 107% | 96.6% | 99.9% | 120% | 81.9% | 38.3% | 102% | 20.9% | 95.6% | 103% | 92.3% | 99.7% | 106% | 103% | 99.8%
CN1CCN(c2ccc([N+](=O)[O-])c3no[n+]([O-])c23)CC1 | 93.2% | 89% | 87.3% | 94.7% | 81.1% | 95.2% | 97% | 85.9% | 88.7% | 82.2% | 52.4% | 84.6% | 103% | 91.4% | 101% | 105% | 106% | 87.4% | 101% | 110% | 98.4% | 69.1% | 85.9% | 97.3% | 93.4% | 89.3% | 85.2% | 99.4% | 99.1% | 93.3% | 92.4% | 76.1% | 46.1%
Cc1cccc(Nc2nc(-c3ccncc3)cs2)c1 | 86.5% | 115% | 88.8% | 98.3% | 99.5% | 126% | 104% | 117% | 118% | 112% | 59.5% |  |  |  |  |  |  |  |  |  |  |  | 92.4% | 141% | 84% | 116% | 109% | 125% | 134% | 130% | 123% | 96.3% | 46.2%
C[C@]12CCC(=O)C=C1CC[C@@H]1[C@@H]2CC[C@@]2(C)[C@H]1CC[C@]2(C)O | 93.6% | 72.8% | 86.5% | 29.9% | 86.7% | 91.1% | 68.3% | 84.9% | 90.9% | 65.6% | 78.7% | 101% | 105% | 97.3% | 29.8% | 98.1% | 95.5% | 96.1% | 74.3% | 102% | 95.8% | 85.4% | 95.5% | 82.2% | 86.9% | 41.9% | 95.2% | 98.6% | 107% | 99.7% | 100% | 98.9% | 97.4%
